Test results as given in patent US20230277508A1, “USE OF COMPOUND AS CYP2E1 INHIBITOR” (SHANGHAI LING XI BIOTECHNOLOGY DEVELOPMENT CO., LTD., priority 2020, published 2023).

Columns and labels:
[1] = test system: DEN-induced rat liver damage; assay: DEN-induced rat liver damage model; type: in vivo, SD rat; conditions: plasma, vs model group
Procedure: Experimental method: An SD rat liver damage model was constructed through intermittent intraperitoneal injection of DEN. A model group was injected intraperitoneally with DEN at 50 mg/kg twice a week in the first 4 weeks and then once a week in the 5th to 8th weeks. An SMI0 intervention group, which was injected with DEN at the amount and the way the same as that in the model group, was divided into SMI0+DEN low-dose and high-dose groups and an SMI0 high-dose continuous administration group, where the SMI0+DEN low-dose and high-dose groups were intragastrically administered with the compound SMI0 at 30 mg/kg and 150 mg/kg 5 min before DEN administration each time, respectively; and the SMI0 high-dose continuous administration group was intragastrically administered with the compound SMI0 at 150 mg/kg every day from the 1st week to the 8th week. At the end of molding, blood was collected from the orbit, and plasma liver function indexes of rats were determined by an automatic biochemical analyzer (model group, n=10 rats; SMI0 compound low-dose group, n=21 rats; (150 mg/kg)^a, SMI0 compound+DEN high-dose group, n=28 rats; and (150 mg/kg)^b, SMI0 compound high-dose continuous administration group, n=24 rats].

Lewis lung cancer cells = assay: Direct effect on proliferation of Lewis lung cancer cells (CCK8); type: cell-based; conditions: up to 100 μmol/L, 24 h
Procedure: (§1) Experimental method: Lewis lung cancer cells and A549 lung cancer cells in a logarithmic growth phase each were selected and inoculated into a 96-well plate at a concentration of 1*10^5 cells/mL, then 100 μL of a basic medium including SMI0 at different concentrations (0 μmol/L, 0.16 μmol/L, 0.8 μmol/L, 4 μmol/L, 20 μmol/L, and 100 μmol/L) was added to each well, and 24 h later, 10 μL of a CCK8 reagent was added to each well; and the cells were further cultivated for 2 h, and an absorbance OD value of each well was determined at 450 nm by a microplate reader. 3 replicates were set for each well, and an average was taken. The proliferation activity was calculated based on the OD value.

A549 lung cancer cells = assay: Direct effect on proliferation of A549 lung cancer cells (CCK8); type: cell-based; conditions: up to 100 μmol/L, 24 h
Procedure: as §1

H22 liver cancer cells = assay: Direct effect on H22 liver cancer cells; type: cell-based; conditions: up to 100 μmol/L, 24 h
Procedure: Experimental method: HepG2 liver cancer cells and H22 liver cancer cells in a logarithmic growth phase each were selected and inoculated into a 96-well plate at a concentration of 1*10^5 cells/mL, and then 100 μL of a basic medium including SMI0 at different concentrations (0 μmol/L, 0.16 μmol/L, 0.8 μmol/L, 4 μmol/L, 20 μmol/L, and 100 μmol/L) was added to each well; and 24 h later, the proliferation activity of HepG2 was determined by a CCK8 method, a migration ability of HepG2 was determined by wound-healing assay, and an apoptosis ability of HepG2 was determined by flow cytometry (FCM).

U251 glioma cells = assay: Direct effect on U251 glioma cells in vitro (CCK8); type: cell-based, human; conditions: up to 128 μmol/L or 200 μmol/L
Procedure: as §1, with “GL261 murine glioma” for “Lewis lung cancer”, “U251 human glioma” for “A549 lung cancer”, “5*10^5” for “1*10^5”, “100 μL of a cell suspension was added to each well, and 12 h later, a medium was discarded; 200” for “100”, “([…])” for “(0 μmol/L, 0.16 μmol/L, 0.8 μmol/L, 4 μmol/L, 20 μmol/L, and 100 μmol/L)”

[2] = test system: collagen-induced rheumatoid arthritis in rats; assay: Collagen-induced rat rheumatoid arthritis model; type: in vivo, SD rat; conditions: SMI0 75, 37.5 and 18.75 mg/kg ig once daily, day 21, vs model group
Procedure: Experimental method: A collagen emulsion was used to construct an SD rat rheumatoid arthritis model. 50 rats successfully modeled were randomly divided into five groups: model group (normal saline (NS), 0.5 mL/kg, i.g.); positive control group (celecoxib, 5 mg/kg, i.g.); SMI0 low-dose group (18.75 mg/kg, i.g.); SMI0 medium-dose group (37.5 mg/kg, i.g.); and SMI0 high-dose group (75 mg/kg, i.g.). The rats each were administered once every day starting from the first day after successful modeling. A thickness of each of the left and right hindfeet and the left and right forefeet of rats was measured every day by a vernier caliper, and a volume of each of the left and right hindfeet of rats was measured by a rat foot swelling measuring instrument (which was measured every 12 h in the first 3 days). A foot swelling rate of each rat was calculated according to a change of a hindfoot volume of the rat relative to a hindfoot volume of the rat before the modeling at each time point, and a difference in foot swelling rate between groups of rats was analyzed. After the successful modeling, blood was collected from the orbit on day 7; rats were sacrificed on day 20, blood was collected, and serum was isolated; and tissues such as ankles, toe joints, spleens, and livers were collected. […]

[3] = test system: LPS-induced sepsis in mice; assay: LPS-induced mouse sepsis model; type: in vivo; conditions: vs model group
Procedure: Mice: A mouse sepsis model was constructed through single intraperitoneal injection of LPS (15 mg/kg). 30 min before LPS administration, mice in the model group were administered with NS (0.5 mL/kg, i.g.), mice in the positive control group were administered with celecoxib (5 mg/kg, i.g.), and mice in the CYP2E1 inhibition group were administered with the compound SMI0 (90 mg/kg, i.g.). A body temperature of each mouse was measured and recorded at 6 h, 12 h, and 24 h after LPS administration, and the body temperature was measured […] in total throughout the experimental process. The animals were sacrificed at 24 h, blood samples were collected, and renal and cardiac function-associated indexes were determined (control group, n=8 mice; model group, n=8 mice; celecoxib group, n=8 mice; and SMI0 compound group, n=10 mice).

[4] = test system: focal cerebral ischemia-reperfusion injury in rats; assay: Focal CIRI rat model with MCAO; type: in vivo
Text: Experimental method: A focal CTRI rat model with middle cerebral artery occlusion (MCAO) was constructed by a modified Zea-longa suture-occluded method.

[5] = SMI0 intervention group, 8 weeks

CC(=O)c1scnc1C [SMI0] was tested, and the “albumin (ALB2) level” value ([1]; SMI0 intervention group (30, 150 mg/kg ig before DEN; 150 mg/kg daily), 8 weeks) was “significantly increased”, the “alanine aminotransferase (ALTL) level” value [1, 5] was “significantly reduced” and the “alkaline phosphatase (ALP) (ALP2S) level” value [1, 5] was “significantly reduced”. For the same compound, the “cholinesterase (CHE2) level” value [1, 5] was “significantly increased”, the “direct bilirubin (BILD2) level” value [1, 5] was “significantly reduced” and the “glutamyl transpeptidase (GGTI2) level” value [1, 5] was “significantly reduced”. The “total bilirubin (BILT3) level” value [1, 5] was “significantly reduced”, the TP2 level ([1]; SMI0 low-dose group (30 mg/kg ig)) was “significantly increased” and the “effect on the proliferation of Lewis lung cancer cells” value (Lewis lung cancer cells) was “no significant inhibitory effect”. For the same compound, the “effect on the proliferation of A549 lung cancer cells” value (A549 lung cancer cells) was “no significant inhibitory effect”, the “effect on the proliferation, migration, and apoptosis of H22 liver cancer cells” value (H22 liver cancer cells) was “no significant inhibitory effect” and the “effect on the proliferation of U251 glioma cells” value (U251 glioma cells) was “no significant inhibitory effect”. For the same compound, the foot swelling degrees [2] was “significantly reduced”, the “decrease in body temperature in the LPS-induced sepsis mouse model” value ([3]; SMI0 90 mg/kg ig 30 min before LPS 15 mg/kg ip, 6 h, 12 h, 24 h) was “avoided” and the “levels of renal and cardiac function-associated indexes (urea nitrogen, creatinine, CK, LDH)” value ([3]; serum at 24 h, SMI0 90 mg/kg ig) was “significantly reduced”. The “inhibition rate on the cerebral edema volume” value ([4]; SMI0 150 mg/kg) was 34.39%, the “inhibition rate on the cerebral infarction volume” value ([4]; SMI0 150 mg/kg) was 36.06% and the cerebral edema volume ([4]; SMI0 150 mg/kg ig 10 min before reperfusion, 24 h reperfusion, model group 19.25%) was 12.63%. The cerebral infarction volume ([4]; SMI0 150 mg/kg ig 10 min before reperfusion, 24 h reperfusion, model group 51.03%) was 32.62%.
